Experiments:
Assay in all cases: relative viability (nuclei count vs DMSO), 5 days (fraction); higher = more cells survive
KIN001-266 + Pemetrexed = compound: CCN1CCC(CC1)N2C=C(N=N2)CNC3=CC4=C(C(=CN=C4C(=C3)Cl)C#N)NC5=CC(=C(C=C5)F)Cl [KIN001-266] + Nc1nc2[nH]cc(CCc3ccc(C(=O)N[C@@H](CCC(=O)O)C(=O)O)cc3)c2c(=O)[nH]1 [Pemetrexed] (partner 0.2 µM)
Procedure, shortened: (§1)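 Lung cancer cell lines in 1536-well plates got either a single drug or a fixed anchor-drug dose together with five library-drug doses (not always all listed) in √10 steps, by pin tool, on the day after seeding. Nuclei were counted after 5 days, and relative viability is the treated-to-vehicle ratio of nuclei counts. Values are medians of duplicate plates.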

KIN001-266 + Navitoclax = compound: CCN1CCC(CC1)N2C=C(N=N2)CNC3=CC4=C(C(=CN=C4C(=C3)Cl)C#N)NC5=CC(=C(C=C5)F)Cl [KIN001-266] + CC1(C)CCC(c2ccc(Cl)cc2)=C(CN2CCN(c3ccc(C(=O)NS(=O)(=O)c4ccc(N[C@H](CCN5CCOCC5)CSc5ccccc5)c(S(=O)(=O)C(F)(F)F)c4)cc3)CC2)C1 [Navitoclax] (partner 0.5 µM)
Procedure, shortened: as §1

KIN001-266 + Vorinostat = compound: CCN1CCC(CC1)N2C=C(N=N2)CNC3=CC4=C(C(=CN=C4C(=C3)Cl)C#N)NC5=CC(=C(C=C5)F)Cl [KIN001-266] + O=C(CCCCCCC(=O)Nc1ccccc1)NO [Vorinostat] (partner 1 µM)
Procedure, shortened: as §1

KIN001-266 + Linsitinib = compound: CCN1CCC(CC1)N2C=C(N=N2)CNC3=CC4=C(C(=CN=C4C(=C3)Cl)C#N)NC5=CC(=C(C=C5)F)Cl [KIN001-266] + C[C@]1(O)C[C@@H](c2nc(-c3ccc4ccc(-c5ccccc5)nc4c3)c3c(N)nccn32)C1 [Linsitinib] (partner 1 µM)
Procedure, shortened: as §1

Cell Line	relative viability (KIN001-266 + Pemetrexed; first compound 0.08 µM)	relative viability (KIN001-266 + Pemetrexed; first compound 0.253 µM)	relative viability (KIN001-266 + Pemetrexed; first compound 0.8 µM)	relative viability (KIN001-266 + Pemetrexed; first compound 2.53 µM)	relative viability (KIN001-266 + Pemetrexed; first compound 8 µM)	relative viability (KIN001-266 + Navitoclax; first compound 0.08 µM)	relative viability (KIN001-266 + Navitoclax; first compound 0.253 µM)	relative viability (KIN001-266 + Navitoclax; first compound 0.8 µM)	relative viability (KIN001-266 + Navitoclax; first compound 2.53 µM)	relative viability (KIN001-266 + Navitoclax; first compound 8 µM)	relative viability (KIN001-266 + Vorinostat; first compound 0.08 µM)	relative viability (KIN001-266 + Vorinostat; first compound 0.253 µM)	relative viability (KIN001-266 + Vorinostat; first compound 0.8 µM)	relative viability (KIN001-266 + Vorinostat; first compound 2.53 µM)	relative viability (KIN001-266 + Vorinostat; first compound 8 µM)	relative viability (KIN001-266 + Linsitinib; first compound 0.08 µM)	relative viability (KIN001-266 + Linsitinib; first compound 0.253 µM)	relative viability (KIN001-266 + Linsitinib; first compound 0.8 µM)	relative viability (KIN001-266 + Linsitinib; first compound 2.53 µM)	relative viability (KIN001-266 + Linsitinib; first compound 8 µM)
NCI-H1355	0.987	0.995	1.1	1	1.01	0.981	0.955	0.963	0.873	0.812	0.615	0.65	0.636	0.631	0.62	0.814	0.803	0.905	0.779	0.742
NCI-H1395	0.871	1.02	0.964	0.784	0.847	1.15	1.26	1.25	1.1	0.938	0.679	0.768	0.828	0.654	0.709	1.06	1.02	1.19	1.11	0.949
NCI-H1437	0.32	0.329	0.329	0.3	0.241	1.09	1.11	1.08	1.12	0.911	0.931	0.841	0.797	0.841	0.572	1.07	1	1.03	1.03	0.583
NCI-H1651	0.6	0.535	0.531	0.514	0.58	0.954	1.04	1.1	0.949	1.05	0.568	0.564	0.533	0.681	0.577	1.08	1.02	0.948	0.998	0.861
NCI-H1666	0.861	0.857	0.881	0.773	0.856	1.06	0.983	0.852	0.91	0.847	1.04	1.06	1.01	1.03	1	1.02	0.861	0.869	0.825	0.674
NCI-H1734	0.425	0.426	0.435	0.388	0.417	0.789	0.839	0.612	0.808	0.61	0.849	0.85	0.743	0.796	0.599	0.812	0.876	0.735	0.848	0.856
NCI-H1755	0.394	0.459	0.334	0.407	0.433	1.01	0.985	0.981	0.992	0.799	0.726	0.75	0.7	0.691	0.763	1	0.973	0.965	0.955	0.844
NCI-H1793	0.895	0.925	–	0.771	0.621	0.516	0.491	0.401	0.388	0.429	0.887	0.738	–	0.723	0.555	0.806	0.829	0.75	0.879	1.03
NCI-H1915	0.507	0.466	0.504	0.469	0.575	0.766	0.79	0.74	0.758	0.742	0.499	0.484	0.534	0.509	0.544	1.1	1.1	1.1	1.06	0.998
NCI-H1944	0.616	0.572	0.596	0.664	0.57	1.03	1.05	0.991	1.04	1.04	0.58	0.508	0.469	0.575	0.625	1.3	1.23	1.14	1.29	1.22
NCI-H1975	0.314	0.305	0.297	0.285	0.29	1.16	1.04	1.13	1.11	1.09	0.693	0.688	0.716	0.707	0.604	0.981	1.04	1.08	1.02	0.958
NCI-H1993	0.562	0.554	0.637	0.586	0.596	1.15	0.96	0.855	0.731	0.681	0.959	0.604	0.685	0.713	0.471	0.714	0.657	0.828	0.687	0.797
NCI-H2009	1.03	1.04	1.01	0.996	0.903	1.14	1.13	1.16	1.07	1.1	0.724	0.736	0.676	0.653	0.516	1.23	1.12	1.2	1.16	1.05
NCI-H2023	0.233	0.192	0.296	0.221	0.201	0.956	1	1.08	0.93	1.05	0.676	0.871	0.675	0.636	0.539	0.696	0.706	0.696	0.617	0.481
NCI-H2085	0.896	0.884	0.738	0.908	0.798	1.15	1.25	1.08	1.13	0.906	0.785	0.779	0.808	0.772	0.667	0.854	0.986	0.908	0.949	0.793
